According to US12364696B2, “Treatment of autoimmune disease” (priority 2019, dated 2025):
“And” between values parts separate entries of the source, which are not always exact repeats. Identical values can stand only once. “Also recorded” adds a separate entry of the source. Like-named read-outs stand apart in the source and are kept apart here.

Assays:
[1] = tested on: patients with chronic, refractory, moderate to severe alopecia areata; assay: Retrospective clinical study of orally administered and sublingual tofacitinib, 7-point assessment scale of hair regrowth; assay type: in vivo, human; settings: for Increase in hair growth of >+1, % of patients / Increase in hair growth of >+1, number of patients / Mean score on 7-point assessment scale / Patients who achieved +3 (complete response, CR) / Median score on 7-point assessment scale: all patients
[2] = tested on: folliculitis decalvans and tufted folliculitis; assay: Additional case studies (data not shown); assay type: in vivo, human; settings: sublingual
[3] = tested on: patients with lichen planopilaris and frontal fibrosing alopecia; settings: for Patient-reported response: ceased treatment
[4] = dose range 1-20 mg, oral or sublingual
[5] = of 71 patients on immunosuppressive co-therapy at start
[6] = oral or sublingual, n = 127, listed as Tofacitinib
[7] = orally administered, 3 months, n = 39, mean dose 4.19 mg
[8] = orally administered, 6 months, n = 36, mean dose 4.96 mg
[9] = orally administered, 9 months, n = 25, mean dose 5.58 mg
[10] = orally administered, 12 months, n = 21, mean dose 5.63 mg
[11] = orally administered, 15 months, n = 16, mean dose 6.90 mg
[12] = orally administered, 18 months, n = 7, mean dose 6.07 mg
[13] = prolonged disease duration >10 years, n = 38
[14] = sublingual, 3 months, n = 88, mean dose 3.73 mg
[15] = sublingual, 6 months, n = 74, mean dose 4.48 mg
[16] = sublingual, 9 months, n = 53, mean dose 4.71 mg
[17] = sublingual, 12 months, n = 34, mean dose 6.25 mg
[18] = sublingual, 15 months, n = 15, mean dose 6.81 mg
[19] = sublingual, 18 months, n = 3, mean dose 5.00 mg
[20] = tofacitinib monotherapy, n = 56

C[C@@H]1CCN(C(=O)CC#N)C[C@@H]1N(C)c1ncnc2[nH]ccc12 [tofacitinib]
Late responders with CR ([1]; 31 late responders, 6 months): 2 | Late responders with a score of 0 ([1]; 31 late responders, 6 months): 8 | Late responders with a score of >+1 ([1]; 31 late responders, 6 months): 17 | Late responders in CR ([1]; 31 late responders, 9 months): 4 | Late responders with a score of >+1 ([1]; 31 late responders, 9 months): 20 | Late responders who had achieved CR ([1]; 31 late responders, by 15 months): 10 | Overall effect on hair loss and regrowth [1, 4]: arrested hair loss and stimulated regrowth in the overwhelming majority of patients; also recorded: highly effective | Tolerability [1, 4]: well tolerated | Patients who developed asymptomatic hepatic transaminitis leading to treatment discontinuation ([1]; later diagnosed with nonalcoholic steatohepatitis): One | Patients who discontinued all other immunosuppressive treatment after starting tofacitinib, % [1, 5]: 46% | Patients who discontinued all other immunosuppressive treatment after starting tofacitinib, number [1, 5]: Thirty-three | Early responders who achieved a +2 ([1]; of the 67 early responders): 40% | Early responders who achieved a +3 ([1]; of the 67 early responders): 22% | Patients who have remained in CR for >12 months ([1]; oral or sublingual): nine | Patients who remain in CR after six months of continued treatment ([1]; oral or sublingual): Twenty-four | Side effects ([1]; oral or sublingual): infrequent and mild | Increase in hair growth of >+1, % of patients ([1]; oral or sublingual, 3 months): 56% | Increase in hair growth of >+1, number of patients ([1]; oral or sublingual, 3 months): 71 | Mean score on 7-point assessment scale ([1]; oral or sublingual, 3 months): 0.84 and 0.8 | Patients who achieved +3 (complete response, CR) ([1]; oral or sublingual, 3 months): 12% | Median score on 7-point assessment scale ([1]; oral or sublingual, 3 months (IQR 0 to +2)): +1 (25-49% hair loss) | Mean score on 7-point assessment scale ([1]; oral or sublingual, 6 months): 1.1 | Mean score on 7-point assessment scale ([1]; oral or sublingual, 9 months): 1.1 | Increase in hair growth of >+1, % of patients ([1]; oral or sublingual, 12 months): 78% | Increase in hair growth of >+1, number of patients ([1]; oral or sublingual, 12 months): 43 | Mean score on 7-point assessment scale ([1]; oral or sublingual, 12 months): 1.66 and 1.6 | Patients who achieved +3 (complete response, CR) ([1]; oral or sublingual, 12 months): 40% | Median score on 7-point assessment scale ([1]; oral or sublingual, 12 months (IQR +1 to +3)): +2 (1-24% hair loss) | Mean score on 7-point assessment scale ([1]; oral or sublingual, 15 months): 1.9 | Increase in hair growth of >+1, % of patients ([1]; oral or sublingual, 18 months): 90% | Increase in hair growth of >+1, number of patients ([1]; oral or sublingual, 18 months): 9 | Mean score on 7-point assessment scale ([1]; oral or sublingual, 18 months): 2.33 and 2.4 | Patients who achieved +3 (complete response, CR) ([1]; oral or sublingual, 18 months): 80% | Median score on 7-point assessment scale ([1]; oral or sublingual, 18 months (IQR +3 to +3)): +3 (No hair loss (SALT 0)) | Early responders (>+1 score by 3 months of treatment), % of patients ([1]; oral or sublingual, n = 127): 53% | Early responders (>+1 score by 3 months of treatment), number of patients ([1]; oral or sublingual, n = 127): Sixty-seven | Late responders (>+1 score after 6 months of treatment), % of patients ([1]; oral or sublingual, n = 127): 24% | Late responders (>+1 score after 6 months of treatment), number of patients ([1]; oral or sublingual, n = 127): Thirty-one | Primary treatment failure (failed to respond), number of patients ([1]; oral or sublingual, n = 127): Twenty-four | Primary treatment failure, % of patients ([1]; oral or sublingual, n = 127): 19% | Relapse (at least one grade deterioration in score), number of patients ([1]; oral or sublingual, n = 127): Twenty-eight | Relapse, % of patients ([1]; oral or sublingual, n = 127): 22% | Primary treatment failure (failed to respond), number of patients [1, 6]: 24 | Relapse (at least one grade deterioration in score), number of patients [1, 6]: 28 | Score +1, number of patients [1, 7]: 7 | Score +2, number of patients [1, 7]: 8 | Score +3, % of patients [1, 7]: 18% | Score +3, number of patients [1, 7]: 7 | Total non-responders, % of patients [1, 7]: 44% | Total non-responders, number of patients [1, 7]: 17 | Total responders, % of patients [1, 7]: 56% | Total responders, number of patients [1, 7]: 22 | Score +1, number of patients [1, 8]: 4 | Score +2, number of patients [1, 8]: 7 | Score +3, % of patients [1, 8]: 27% | Score +3, number of patients [1, 8]: 10 | Total non-responders, % of patients [1, 8]: 42% | Total non-responders, number of patients [1, 8]: 15 | Total responders, % of patients [1, 8]: 58% | Total responders, number of patients [1, 8]: 21 | Score +1, number of patients [1, 9]: 3 | Score +2, number of patients [1, 9]: 4 | Score +3, % of patients [1, 9]: 48% | Score +3, number of patients [1, 9]: 12 | Total non-responders, % of patients [1, 9]: 24% | Total non-responders, number of patients [1, 9]: 6 | Total responders, % of patients [1, 9]: 76% | Total responders, number of patients [1, 9]: 19 | Score +1, number of patients [1, 10]: 1 | Score +2, number of patients [1, 10]: 5 | Score +3, % of patients [1, 10]: 52% | Score +3, number of patients [1, 10]: 11 | Total non-responders, % of patients [1, 10]: 19% | Total non-responders, number of patients [1, 10]: 4 | Total responders, % of patients [1, 10]: 81% | Total responders, number of patients [1, 10]: 17 | Score +1, number of patients [1, 11]: 1 | Score +2, number of patients [1, 11]: 2 | Score +3, % of patients [1, 11]: 56% | Score +3, number of patients [1, 11]: 9 | Total non-responders, % of patients [1, 11]: 25% | Total non-responders, number of patients [1, 11]: 4 | Total responders, % of patients [1, 11]: 75% | Total responders, number of patients [1, 11]: 12 | Score +1, number of patients [1, 12]: 0 | Score +2, number of patients [1, 12]: 1 | Score +3, % of patients [1, 12]: 71% | Score +3, number of patients [1, 12]: 5 | Total non-responders, % of patients [1, 12]: 14% | Total non-responders, number of patients [1, 12]: 1 | Total responders, % of patients [1, 12]: 86% | Total responders, number of patients [1, 12]: 6 | Secondary treatment failure, number of patients ([1]; out of 28 who experienced a relapse while on treatment): Five | Patients who achieved a CR, % ([1]; patients with AT/AU): 37% | Patients who achieved a CR, number ([1]; patients with AT/AU): 13 | Patients who achieved a response, % ([1]; patients with AT/AU): 71% | Patients who achieved a response, number ([1]; patients with AT/AU): 25 | Early responders, number of patients [1, 13]: 21 | Late responders, number of patients [1, 13]: 10 | Never responded, number of patients [1, 13]: 6 | Patients who had regrowth [1, 13]: 81.6% | Relapsed, number of patients [1, 13]: 2 | Score +1, number of patients [1, 14]: 21 | Score +2, number of patients [1, 14]: 20 | Score +3, % of patients [1, 14]: 9% | Score +3, number of patients [1, 14]: 8 | Total non-responders, % of patients [1, 14]: 46.5% | Total non-responders, number of patients [1, 14]: 41 | Total responders, % of patients [1, 14]: 53% | Total responders, number of patients [1, 14]: 49 | Score +1, number of patients [1, 15]: 18 | Score +2, number of patients [1, 15]: 17 | Score +3, % of patients [1, 15]: 20% | Score +3, number of patients [1, 15]: 15 | Total non-responders, % of patients [1, 15]: 32% | Total non-responders, number of patients [1, 15]: 24 | Total responders, % of patients [1, 15]: 68% | Total responders, number of patients [1, 15]: 50 | Score +1, number of patients [1, 16]: 13 | Score +2, number of patients [1, 16]: 12 | Score +3, % of patients [1, 16]: 26% | Score +3, number of patients [1, 16]: 14 | Total non-responders, % of patients [1, 16]: 26% | Total non-responders, number of patients [1, 16]: 14 | Total responders, % of patients [1, 16]: 74% | Total responders, number of patients [1, 16]: 39 | Score +1, number of patients [1, 17]: 8 | Score +2, number of patients [1, 17]: 11 | Score +3, % of patients [1, 17]: 32% | Score +3, number of patients [1, 17]: 11 | Total non-responders, % of patients [1, 17]: 15% | Total non-responders, number of patients [1, 17]: 5 | Total responders, % of patients [1, 17]: 85% | Total responders, number of patients [1, 17]: 29 | Score +1, number of patients [1, 18]: 3 | Score +2, number of patients [1, 18]: 5 | Score +3, % of patients [1, 18]: 40% | Score +3, number of patients [1, 18]: 6 | Total non-responders, % of patients [1, 18]: 7% | Total non-responders, number of patients [1, 18]: 1 | Total responders, % of patients [1, 18]: 93% | Total responders, number of patients [1, 18]: 14 | Score +1, number of patients [1, 19]: 0 | Score +2, number of patients [1, 19]: 0 | Score +3, % of patients [1, 19]: 100% | Score +3, number of patients [1, 19]: 3 | Total non-responders, number of patients [1, 19]: 0 | Total responders, % of patients [1, 19]: 100% | Total responders, number of patients [1, 19]: 3 | Early responders, % of patients [1, 20]: 51.7% | Early responders, number of patients [1, 20]: Twenty-nine | Late responders, % of patients [1, 20]: 19.6% | Late responders, number of patients [1, 20]: 11 | Patients who achieved a CR [1, 20]: Eighteen | Primary failures, % of patients [1, 20]: 26.7% | Primary failures, number of patients [1, 20]: 15 | Secondary failure, number of patients [1, 20]: 1 | Usefulness for treatment of folliculitis decalvans and tufted folliculitis [2]: useful | Side effects ([3]; Patient 1): No side effects | Activity of lichen planopilaris ([3]; Patient 1, sublingual 5-10 mg daily, July 2019 to February 2020, with concurrent medications): controlled | Side effects ([3]; Patient 2): No side effects | Symptoms of lichen planopilaris ([3]; Patient 2, up to 5 mg in the morning and 2.5 mg at night, with concurrent medications): symptom-free | Patient-reported response ([3]; Patient 3, lichen planopilaris, 2 mg twice daily increased to 7.5 mg): not happy with the response | Patient-reported response ([3]; Patient 4, lichen planopilaris/frontal fibrosing alopecia, 2.5 mg twice daily for 12 months): not happy with the response | Effect on symptoms of lichen planopilaris and frontal fibrosing alopecia ([3]; series of case studies, sublingual): demonstrated activity at reducing the symptoms
